Experiments:
barnyardgrass [1] = experiment: Test A pre-/postemergence herbicide test; assay type: in vivo, Echinochloa crus-galli
How it was run: (§1)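 Seeds sown in sandy loam received a preemergence directed soil spray of compound in non-phytotoxic solvent with surfactant; postemergence plants (2–10 cm, one- to two-leaf stage) were sprayed to runoff at the same time. After ~10 days in greenhouse, injury was rated visually versus untreated controls (0 = no effect, 100 = complete control).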

large crabgrass = experiment: Test A pre-/postemergence herbicide test; assay type: in vivo, Digitaria sanguinalis
How it was run: as §1

giant foxtail = experiment: Test A pre-/postemergence herbicide test; assay type: in vivo, Setaria faberi
How it was run: as §1

morningglory = experiment: Test A pre-/postemergence herbicide test; assay type: in vivo, Ipomoea spp.
How it was run: as §1

redroot pigweed = experiment: Test A pre-/postemergence herbicide test; assay type: in vivo, Amaranthus retroflexus
How it was run: as §1

velvetleaf = experiment: Test A pre-/postemergence herbicide test; assay type: in vivo, Abutilon theophrasti
How it was run: as §1

rice = experiment: Test B flooded paddy test; assay type: in vivo, Oryza sativa; conditions: scale 0 to 100 (0 no effect, 100 complete control)
How it was run: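 Read-out: visual comparison with controls, scored 0 to 100, where 100 means complete control and 0 no effect. Formulated chemicals were applied postemergence to plants 2–18 cm tall (1- to 4-leaf), or to flooded-paddy plants at the 2-leaf stage, then held 13 to 15 days under glass.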

[2] = test system: small flower umbrella sedge; experiment: Test B flooded paddy test; assay type: in vivo, Cyperus difformis; conditions: scale 0 to 100 (0 no effect, 100 complete control)
How it was run: (§2)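 Greenhouse test; postemergence application to plants at 1–4 leaves (2–18 cm); paddy species at 2 leaves; evaluated visually vs controls at 13–15 days; scale 0–100 (100 = complete control).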

ducksalad = experiment: Test B flooded paddy test; assay type: in vivo, Heteranthera limosa; conditions: scale 0 to 100 (0 no effect, 100 complete control)
How it was run: as §2

barnyardgrass [3] = experiment: Test B flooded paddy test; assay type: in vivo, Echinochloa crus-galli; conditions: scale 0 to 100 (0 no effect, 100 complete control)
How it was run: as §2

[4] = Postemergence, 125 g ai/ha, 0 to 100 scale, 0 no effect, 100 complete control
[5] = Postemergence, 500 g ai/ha, 0 to 100 scale, 0 no effect, 100 complete control
[6] = preemergence, 125 g ai/ha, visual injury, 0 to 100 scale (0 no effect, 100 complete control)
[7] = preemergence, 500 g ai/ha, visual injury, 0 to 100 scale (0 no effect, 100 complete control)

| Structure (SMILES) | Barnyardgrass plant response rating (barnyardgrass [1]; [4]) | Barnyardgrass plant response rating (barnyardgrass [1]; [5]) | Barnyardgrass plant response rating (barnyardgrass [1]; [6]) | Barnyardgrass plant response rating (barnyardgrass [1]; [7]) | Crabgrass, Large plant response rating (large crabgrass; [4]) | Crabgrass, Large plant response rating (large crabgrass; [5]) | Crabgrass, Large plant response rating (large crabgrass; [6]) | Crabgrass, Large plant response rating (large crabgrass; [7]) | Foxtail, Giant plant response rating (giant foxtail; [4]) | Foxtail, Giant plant response rating (giant foxtail; [5]) | Foxtail, Giant plant response rating (giant foxtail; [6]) | Foxtail, Giant plant response rating (giant foxtail; [7]) | Morningglory plant response rating (morningglory; [4]) | Morningglory plant response rating (morningglory; [5]) | Morningglory plant response rating (morningglory; [6]) | Morningglory plant response rating (morningglory; [7]) | Pigweed plant response rating (redroot pigweed; [4]) | Pigweed plant response rating (redroot pigweed; [5]) | Pigweed plant response rating (redroot pigweed; [6]) | Pigweed plant response rating (redroot pigweed; [7]) | other results |
| --- | --- | --- | --- | --- | --- | --- | --- | --- | --- | --- | --- | --- | --- | --- | --- | --- | --- | --- | --- | --- | --- |
| CCn1nc(C(C)(C)C)nc1C(=O)Nc1cccc(C(=O)N(C)C)c1 [Compound 448] | 90 | 90 | 95 | 100 | 75 | 80 | 45 | 85 | 85 | 90 | 80 | 100 | 15 | 55 | 60 | 60 | 70 | 90 | 100 | 100 | Velvetleaf plant response rating (velvetleaf; [4]): 60; Velvetleaf plant response rating (velvetleaf; [5]): 80; Velvetleaf plant response rating (velvetleaf; [6]): 15; Velvetleaf plant response rating (velvetleaf; [7]): 85; Rice plant response rating (rice; 125 g ai/ha): 80; Rice plant response rating (rice; 500 g ai/ha): 90; Sedge, Umbrella plant response rating ([2]; 125 g ai/ha): 90; Sedge, Umbrella plant response rating ([2]; 500 g ai/ha): 90; Ducksalad plant response rating (ducksalad; 125 g ai/ha): 70; Ducksalad plant response rating (ducksalad; 500 g ai/ha): 80; Barnyardgrass plant response rating (barnyardgrass [3]; 125 g ai/ha): 90; Barnyardgrass plant response rating (barnyardgrass [3]; 500 g ai/ha): 100 |
| CCn1nc(C(C)(C)C)nc1C(=O)Nc1cccc(OC(F)(F)F)c1 [Compound 449] | 20 | 35 | 45 | 90 | 20 | 30 | 35 | 80 | 20 | 50 | 60 | 90 | 5 | 15 | 0 | 5 | 20 | 40 | 0 | 50 | Velvetleaf plant response rating (velvetleaf; [4]): 10; Velvetleaf plant response rating (velvetleaf; [5]): 20; Velvetleaf plant response rating (velvetleaf; [6]): 0; Velvetleaf plant response rating (velvetleaf; [7]): 10; Rice plant response rating (rice; 125 g ai/ha): 10; Rice plant response rating (rice; 500 g ai/ha): 50; Sedge, Umbrella plant response rating ([2]; 125 g ai/ha): 30; Sedge, Umbrella plant response rating ([2]; 500 g ai/ha): 80; Ducksalad plant response rating (ducksalad; 125 g ai/ha): 20; Ducksalad plant response rating (ducksalad; 500 g ai/ha): 70; Barnyardgrass plant response rating (barnyardgrass [3]; 125 g ai/ha): 0; Barnyardgrass plant response rating (barnyardgrass [3]; 500 g ai/ha): 30 |
| CCc1nn(C(C)(C)C)cc1C(=O)Nc1cc(C(=S)N(C)C)ccc1F [Compound 454] | 40 | 80 | 70 | 85 | 10 | 70 | 50 | 85 | 20 | 70 | 10 | 85 | 10 | 50 | 0 | 20 | 40 | 70 | 20 | 90 | Velvetleaf plant response rating (velvetleaf; [4]): 50; Velvetleaf plant response rating (velvetleaf; [5]): 70; Velvetleaf plant response rating (velvetleaf; [6]): 0; Velvetleaf plant response rating (velvetleaf; [7]): 20; Rice plant response rating (rice; 125 g ai/ha): 60; Rice plant response rating (rice; 500 g ai/ha): 80; Sedge, Umbrella plant response rating ([2]; 125 g ai/ha): 60; Sedge, Umbrella plant response rating ([2]; 500 g ai/ha): 70; Ducksalad plant response rating (ducksalad; 125 g ai/ha): 50; Ducksalad plant response rating (ducksalad; 500 g ai/ha): 70; Barnyardgrass plant response rating (barnyardgrass [3]; 125 g ai/ha): 50; Barnyardgrass plant response rating (barnyardgrass [3]; 500 g ai/ha): 90 |

Source: US20060069132A1, “Azolecarboxamide herbicides” (priority 2004, published 2006)
